Laboratory results: ChEMBL document CHEMBL5126546, “Advancements in the development of multi-target directed ligands for the treatment of Alzheimer's disease” (Bioorg Med Chem, 2022)

How the values were obtained:
[1] = Selectivity index, ratio of IC50 for inhibition of equine serum BuChE to IC50 for inhibition of electric eel AChE
[2] = target: T1, Amyloid-beta precursor protein (Homo sapiens, UniProt P05067); assay: Inhibition of self-induced amyloid beta (1 to 42) (unknown origin) aggregation by Thioflavin T based fluorometric assay
T1 sequence (P05067 whole entry): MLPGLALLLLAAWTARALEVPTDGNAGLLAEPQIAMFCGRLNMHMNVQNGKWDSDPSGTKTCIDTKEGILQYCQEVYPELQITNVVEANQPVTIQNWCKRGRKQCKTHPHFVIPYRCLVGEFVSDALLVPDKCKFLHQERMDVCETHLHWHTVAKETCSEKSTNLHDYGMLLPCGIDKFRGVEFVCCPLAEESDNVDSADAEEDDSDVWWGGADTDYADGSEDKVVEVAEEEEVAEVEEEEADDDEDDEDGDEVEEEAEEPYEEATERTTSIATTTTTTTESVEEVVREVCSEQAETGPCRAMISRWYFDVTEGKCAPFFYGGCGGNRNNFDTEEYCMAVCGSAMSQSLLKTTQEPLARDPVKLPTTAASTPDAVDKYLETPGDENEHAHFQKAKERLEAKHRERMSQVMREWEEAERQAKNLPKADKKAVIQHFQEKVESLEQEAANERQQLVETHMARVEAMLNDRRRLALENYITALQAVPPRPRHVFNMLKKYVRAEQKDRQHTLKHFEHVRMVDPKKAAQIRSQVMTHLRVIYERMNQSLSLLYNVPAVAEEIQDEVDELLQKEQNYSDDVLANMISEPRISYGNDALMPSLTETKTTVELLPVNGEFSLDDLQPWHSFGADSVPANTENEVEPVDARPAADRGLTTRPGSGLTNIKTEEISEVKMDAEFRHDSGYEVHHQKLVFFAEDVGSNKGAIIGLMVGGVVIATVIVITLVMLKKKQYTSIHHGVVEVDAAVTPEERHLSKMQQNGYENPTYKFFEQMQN

[3] = species on record: Homo sapiens; assay: Selectivity index, ratio of IC50 for inhibition of human AChE to IC50 for inhibition of human BuChE
[4] = target: T2, Acetylcholinesterase (Homo sapiens, UniProt P22303); assay: Inhibition of human AChE using acetylthiocholine iodide as substrate by Ellman's method
T2 sequence (P22303 whole entry): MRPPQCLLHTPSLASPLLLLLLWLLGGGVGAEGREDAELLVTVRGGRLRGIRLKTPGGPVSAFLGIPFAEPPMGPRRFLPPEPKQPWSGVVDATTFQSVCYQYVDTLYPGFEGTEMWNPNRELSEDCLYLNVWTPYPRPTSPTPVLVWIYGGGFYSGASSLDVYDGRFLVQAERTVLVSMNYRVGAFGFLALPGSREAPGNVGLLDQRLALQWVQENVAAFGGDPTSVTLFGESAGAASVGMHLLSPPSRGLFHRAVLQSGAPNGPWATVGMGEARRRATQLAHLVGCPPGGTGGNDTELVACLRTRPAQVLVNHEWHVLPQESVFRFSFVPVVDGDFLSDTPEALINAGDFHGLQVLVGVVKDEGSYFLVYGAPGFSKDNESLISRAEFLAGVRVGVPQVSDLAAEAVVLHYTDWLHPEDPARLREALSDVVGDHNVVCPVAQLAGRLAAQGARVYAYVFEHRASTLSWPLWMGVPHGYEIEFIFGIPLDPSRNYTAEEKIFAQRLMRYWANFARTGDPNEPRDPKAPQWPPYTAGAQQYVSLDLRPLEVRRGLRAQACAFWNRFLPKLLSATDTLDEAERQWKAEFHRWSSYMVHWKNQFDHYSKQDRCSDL

[5] = target: 72 kDa type IV collagenase (Homo sapiens, UniProt P08253); assay: Inhibition of MMP-2 (unknown origin) by Fluorometric analysis
[6] = target: T3, Amine oxidase [flavin-containing] B (Homo sapiens, UniProt P27338); assay: Inhibition of recombinant human MAO-B using p-tyramine as substrate preincubated for 15 mins followed by substrate addition and measured after 30 mins by Amplex Red reagent based fluorometric analysis
T3 sequence (P27338 whole entry): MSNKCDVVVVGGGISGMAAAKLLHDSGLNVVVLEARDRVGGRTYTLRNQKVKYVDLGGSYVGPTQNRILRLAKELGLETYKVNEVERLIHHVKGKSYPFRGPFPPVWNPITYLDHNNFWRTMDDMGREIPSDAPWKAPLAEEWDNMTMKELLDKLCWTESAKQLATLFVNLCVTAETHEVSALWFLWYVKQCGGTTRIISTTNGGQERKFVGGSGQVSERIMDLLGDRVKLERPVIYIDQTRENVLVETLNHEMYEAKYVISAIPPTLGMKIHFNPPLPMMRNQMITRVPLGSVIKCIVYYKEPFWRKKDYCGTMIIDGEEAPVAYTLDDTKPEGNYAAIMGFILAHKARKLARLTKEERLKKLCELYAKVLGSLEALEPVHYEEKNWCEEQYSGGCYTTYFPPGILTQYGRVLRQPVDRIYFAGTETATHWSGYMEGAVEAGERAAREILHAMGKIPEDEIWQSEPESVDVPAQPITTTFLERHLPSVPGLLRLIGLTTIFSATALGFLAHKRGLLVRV

[7] = target: T4, Amine oxidase [flavin-containing] A (Homo sapiens, UniProt P21397); assay: Inhibition of recombinant human MAO-A using p-tyramine as substrate preincubated for 15 mins followed by substrate addition and measured after 30 mins by Amplex Red reagent based fluorometric analysis
T4 sequence (P21397 whole entry): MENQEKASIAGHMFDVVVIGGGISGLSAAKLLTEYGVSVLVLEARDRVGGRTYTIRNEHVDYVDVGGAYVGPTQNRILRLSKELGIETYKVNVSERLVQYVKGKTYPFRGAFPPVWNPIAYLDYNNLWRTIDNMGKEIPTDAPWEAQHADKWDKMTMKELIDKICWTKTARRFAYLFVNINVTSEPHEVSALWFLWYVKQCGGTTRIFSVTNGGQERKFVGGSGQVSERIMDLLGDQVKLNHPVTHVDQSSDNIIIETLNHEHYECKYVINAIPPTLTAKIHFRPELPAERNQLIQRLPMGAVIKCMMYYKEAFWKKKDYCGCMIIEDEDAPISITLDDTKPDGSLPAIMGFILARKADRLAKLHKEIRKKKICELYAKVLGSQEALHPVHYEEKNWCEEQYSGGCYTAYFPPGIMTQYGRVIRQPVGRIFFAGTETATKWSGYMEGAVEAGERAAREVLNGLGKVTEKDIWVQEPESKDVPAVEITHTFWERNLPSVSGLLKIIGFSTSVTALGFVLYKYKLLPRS

[8] = test system: Rattus norvegicus; assay: Antiinflammatory activity in carrageenan induced Sprague-Dawley rat acute inflammation model assessed as inhibition of paw edema at 50 mg/kg, po for 1 hr followed by carrageenan injection snd measured after 3 hrs relative to control; assay type: functional; parameters: scale not given: the % may be the effect or the level left; conditions: time 4 hrs
[9] = target: Beta-secretase 1 (Homo sapiens, UniProt P56817); assay: Inhibition of recombinant human BACE-1 using MCA-SEVNLDAEFR-Ednp-KRR-NH2.3TFA as substrate incubated for 2 hrs by Varioskan-flash multimode plate reader analysis
[10] = test system: Rattus norvegicus; assay: Antiinflammatory activity in formalin induced Sprague-Dawley rat chronic inflammation model assessed as inhibition of paw edema at 50 mg/kg, po for 1 hr followed by formalin injection for 5 days relative to control; assay type: functional; parameters: scale not given: the % may be the effect or the level left; conditions: time 5 day
[11] = target: T2, Acetylcholinesterase; assay: Inhibition of recombinant human AChE using acetylthiocholine as substrate by Ellman's method
[12] = target: T5, Cholinesterase (Equus caballus, UniProt P81908); assay: Inhibition of equine serum BuChE using butyrylthiocholine iodide as substrate preincubated for 5 mins followed by substrate addition and measured after 5 mins by Ellman's method
T5 sequence (P81908 whole entry): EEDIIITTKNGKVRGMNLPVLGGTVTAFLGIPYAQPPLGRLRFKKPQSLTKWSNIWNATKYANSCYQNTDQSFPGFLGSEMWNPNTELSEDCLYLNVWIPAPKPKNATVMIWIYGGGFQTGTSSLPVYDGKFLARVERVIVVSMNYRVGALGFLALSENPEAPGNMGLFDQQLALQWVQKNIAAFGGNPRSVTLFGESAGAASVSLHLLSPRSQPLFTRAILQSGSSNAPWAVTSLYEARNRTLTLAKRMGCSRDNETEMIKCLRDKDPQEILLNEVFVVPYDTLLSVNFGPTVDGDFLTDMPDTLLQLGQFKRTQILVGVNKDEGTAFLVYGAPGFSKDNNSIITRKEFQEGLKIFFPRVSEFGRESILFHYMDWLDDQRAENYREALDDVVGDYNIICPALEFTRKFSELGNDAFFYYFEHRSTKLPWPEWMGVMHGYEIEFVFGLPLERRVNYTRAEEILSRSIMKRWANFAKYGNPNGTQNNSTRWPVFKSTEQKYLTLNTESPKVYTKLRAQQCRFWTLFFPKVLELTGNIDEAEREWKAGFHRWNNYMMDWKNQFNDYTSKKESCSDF

[13] = target: T6, Acetylcholinesterase (Electrophorus electricus, UniProt O42275); assay: Inhibition of Electrophorus electricus AchE using acetylthiocholine iodide as substrate preincubated for 5 mins followed by substrate addition and measured after 5 mins by Ellman's method
T6 sequence (O42275 whole entry): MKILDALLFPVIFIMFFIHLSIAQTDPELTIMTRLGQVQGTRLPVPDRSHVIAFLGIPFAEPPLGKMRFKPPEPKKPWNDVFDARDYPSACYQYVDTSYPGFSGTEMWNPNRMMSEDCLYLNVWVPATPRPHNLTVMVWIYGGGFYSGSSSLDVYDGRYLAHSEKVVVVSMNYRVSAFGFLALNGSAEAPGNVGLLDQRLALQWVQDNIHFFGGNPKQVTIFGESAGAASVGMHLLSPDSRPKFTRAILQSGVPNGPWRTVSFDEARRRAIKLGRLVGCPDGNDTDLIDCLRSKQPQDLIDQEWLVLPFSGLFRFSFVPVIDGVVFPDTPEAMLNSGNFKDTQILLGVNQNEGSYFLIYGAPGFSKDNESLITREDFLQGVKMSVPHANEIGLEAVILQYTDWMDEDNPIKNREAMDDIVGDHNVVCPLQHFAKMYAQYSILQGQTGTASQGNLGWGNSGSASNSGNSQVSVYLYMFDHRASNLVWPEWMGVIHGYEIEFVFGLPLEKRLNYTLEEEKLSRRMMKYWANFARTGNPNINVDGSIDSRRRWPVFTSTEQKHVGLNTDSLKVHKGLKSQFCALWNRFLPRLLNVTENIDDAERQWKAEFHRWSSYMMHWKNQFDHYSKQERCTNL

[14] = target: T6, Acetylcholinesterase; assay: Inhibition of Electrophorus electricus AChE using acetylthiocholine iodide as substrate preincubated for 5 mins followed by substrate addition and measured for 5 mins by spectrophotometric based Ellman's method
[15] = target: T6, Acetylcholinesterase; assay: Inhibition of electric eel AChE using acetylthiocholine iodide as substrate by spectrophotometric based Ellman's method
[16] = target: T5, Cholinesterase; assay: Inhibition of horse serum BuChE using butyrylthiocholine chloride as substrate by spectrophotometric based Ellman's method
[17] = target: T2, Acetylcholinesterase; assay: Inhibition of recombinant human AChE using Amplex red, acetylthiocholine as substrate preincubated for 15 mins followed by substrate addition and measured after 30 mins by microplate fluorescence reader analysis
[18] = target: Microtubule-associated protein tau (Homo sapiens) (UniProt P10636); assay: Inhibition of tau aggregation (unknown origin) at 20 uM for 72 hrs by thioflavin S based fluorescence analysis
Sequence of Microtubule-associated protein tau (Homo sapiens) (P10636 whole entry): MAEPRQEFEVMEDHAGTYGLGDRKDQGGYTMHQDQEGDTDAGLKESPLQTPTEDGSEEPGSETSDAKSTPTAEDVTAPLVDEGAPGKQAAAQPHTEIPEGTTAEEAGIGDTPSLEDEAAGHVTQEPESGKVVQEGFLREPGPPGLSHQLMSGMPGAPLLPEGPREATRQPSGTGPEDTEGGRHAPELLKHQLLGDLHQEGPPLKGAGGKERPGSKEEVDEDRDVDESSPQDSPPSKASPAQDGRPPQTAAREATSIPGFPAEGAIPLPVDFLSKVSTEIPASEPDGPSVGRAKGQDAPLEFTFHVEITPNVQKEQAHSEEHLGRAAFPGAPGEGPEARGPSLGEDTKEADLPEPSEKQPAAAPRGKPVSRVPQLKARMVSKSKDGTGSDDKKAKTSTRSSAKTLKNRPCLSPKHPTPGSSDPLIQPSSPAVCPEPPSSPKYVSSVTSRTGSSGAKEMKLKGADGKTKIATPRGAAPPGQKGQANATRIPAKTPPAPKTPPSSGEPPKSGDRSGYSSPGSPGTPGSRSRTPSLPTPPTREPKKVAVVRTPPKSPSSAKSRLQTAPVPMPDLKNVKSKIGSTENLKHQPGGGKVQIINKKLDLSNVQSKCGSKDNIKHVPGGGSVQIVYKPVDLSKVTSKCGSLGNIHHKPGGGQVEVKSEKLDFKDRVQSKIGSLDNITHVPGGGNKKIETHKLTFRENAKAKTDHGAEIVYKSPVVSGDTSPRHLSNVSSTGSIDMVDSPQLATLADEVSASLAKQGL

[19] = target: Glycogen synthase kinase-3 beta (Homo sapiens) (UniProt P49841); assay: Inhibition of GSK-3beta (unknown origin) at 10 uM by Kinase-GLO reagent based assay
[20] = target: T2, Acetylcholinesterase; assay: Inhibition of recombinant human AChE using acetylthiocholine iodide as substrate by Ellman's method
[21] = target: Cholinesterase (Homo sapiens, UniProt P06276); assay: Inhibition of BuChE (unknown origin) incubated for 15 mins by Ellman's method
Sequence of Cholinesterase (Homo sapiens, UniProt P06276) (P06276 whole entry): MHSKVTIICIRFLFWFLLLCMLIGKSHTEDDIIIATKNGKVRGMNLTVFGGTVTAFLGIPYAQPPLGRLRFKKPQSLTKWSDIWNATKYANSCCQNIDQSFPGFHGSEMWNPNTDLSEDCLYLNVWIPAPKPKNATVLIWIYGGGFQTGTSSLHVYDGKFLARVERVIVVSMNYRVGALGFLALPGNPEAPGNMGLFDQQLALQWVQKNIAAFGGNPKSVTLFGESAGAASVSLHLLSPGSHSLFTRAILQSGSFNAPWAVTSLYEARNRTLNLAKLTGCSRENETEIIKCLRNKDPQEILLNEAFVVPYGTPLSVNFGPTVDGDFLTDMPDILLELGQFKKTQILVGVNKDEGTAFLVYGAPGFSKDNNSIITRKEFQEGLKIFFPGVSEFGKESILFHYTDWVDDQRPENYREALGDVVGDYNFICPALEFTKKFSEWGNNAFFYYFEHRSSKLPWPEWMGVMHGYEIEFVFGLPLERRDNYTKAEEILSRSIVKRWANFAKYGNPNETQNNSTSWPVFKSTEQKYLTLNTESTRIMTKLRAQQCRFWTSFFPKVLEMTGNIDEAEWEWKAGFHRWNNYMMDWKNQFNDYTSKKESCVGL

[22] = target: T3, Amine oxidase [flavin-containing] B; assay: Inhibition of recombinant human MAO-B assessed as amount of 4-hydroxyquinoline using kynuramine as a substrate incubated for 30 mins by fluorescence spectrophotometry
[23] = target: T4, Amine oxidase [flavin-containing] A; assay: Inhibition of recombinant human MAO-A assessed as amount of 4-hydroxyquinoline using kynuramine as a substrate incubated for 30 mins by fluorescence spectrophotometry
[24] = Antioxidant activity of compound assessed as trolox equivalent of ORAC radical scavenging activity by ORAC-FL assay; assay type: functional
[25] = target: T6, Acetylcholinesterase; assay: Inhibition of Electrophorus electricus AchE incubated for 15 mins by Ellman's method
[26] = test system: SK-N-MC; assay: Antiproliferative activity against human SK-N-MC cells assessed as reduction in cell proliferation incubated for 72 hrs by MTT assay; assay type: functional, cell-based
[27] = target: T1, Amyloid-beta precursor protein; assay: Inhibition of Cu2+ induced amyloid beta (1 to 42) (unknown origin) aggregation at 25 uM and measured after 24 hrs by Thioflavin T based fluorometric assay
[28] = target: T1, Amyloid-beta precursor protein; assay: Inhibition of amyloid beta (1 to 42) (unknown origin) self aggregation at 40 uM and measured after 24 hrs by Thioflavin T based fluorometric assay

With Cc1nc(C)c(C(=O)OCCCOC(=O)c2ccccn2)nc1C as the compound, how does the Ratio IC50 [1] read?
Its Ratio IC50 is 1.32e+07.

What does the source list for O=c1cc(/N=N/N=P(CCP(=N/N=N/c2cc(=O)oc3ccccc23)(c2ccccc2)c2ccccc2)(c2ccccc2)c2ccccc2)c2ccccc2o1?
IC50 [2]: 338 µM; Ratio IC50 [3]: 3.81; IC50 [4]: 0.035 µM; IC50 [5]: 441 µM

What does the source list for C#CCOc1ccc(-c2cc(-c3ccc(OCCN4CCOCC4)cc3)nc(N)n2)cc1?
IC50 [6]: 9.91 µM; IC50 [7]: 18.3 µM

Which results are given for Cc1cc2nc(-c3cnc(N)s3)c(-c3cnc(N)s3)nc2cc1C?
Activity [8]: 69%; IC50 [9]: 3 µM; Activity [10]: 55%

For Clc1ccc2c(NCCCNCC34CC5CC(CC(C5)C3)C4)ccnc2c1, which IC50 [11] is on record?
The IC50 was 0.5 µM.

Which IC50 [12] does the source give for CCCN1CCN(c2ncc(CCN(C)CCCc3ccccc3)s2)CC1 here?
Its IC50 is 14.6 µM.

And the IC50 [13]?
Its IC50 is 14 µM.

With O=c1c2ccc(OCCN3CCCC3)cc2oc2cc(OCCN3CCCC3)cc(O)c12 as the compound, how does the IC50 [14] read?
The IC50 was 0.12 µM.

With O=C(N/N=C/Nc1c2c(nc3ccccc13)CCCC2)C12CC3CC(CC(C3)C1)C2 as the compound, how does the IC50 [15] read?
Its IC50 is 6.77 µM.

What about the IC50 [16] of the same compound?
Its IC50 is 0.615 µM.

Which IC50 [17] does the source give for C#CCOc1cccc(-c2cc(-c3ccc(OCCN4CCOCC4)cc3)nc(C)n2)c1 here?
The IC50 was 0.00954 µM.

With CC1=C[C@H]2c3c(O)cc(-c4cc5ccc(O)cc5o4)cc3O[C@@]3(c4ccc(O)cc4O)Oc4cc(O)ccc4[C@H](C1)[C@@H]23 as the compound, how does the inhibition [18] read?
Its inhibition is 37.3%.

For CO[C@@H]1C=C[C@@]23c4cc5c(cc4CN(C[C@@H]2OC(=O)c2ccc([N+](=O)[O-])cc2)C3C1)OCO5 (stereo partly drawn), which inhibition [19] is on record?
Its inhibition is 27%.

What about the IC50 [20] of the same compound?
The IC50 was 14.7 µM.

Which IC50 [21] does the source give for CCN(CCCCOc1ccc(/C=C/C(=O)N2CCc3ccccc3C2)cc1OC)Cc1ccccc1 here?
The IC50 was 8.9 µM.

What about the IC50 [22] of the same compound?
Its IC50 is 8.6 µM.

What about the IC50 [23] of the same compound?
Its IC50 is 6.3 µM.

And the Activity [24]?
Its Activity is 0.53 equiv.

What about the IC50 [25] of the same compound?
The IC50 was 12.1 µM.

Which IC50 [26] does the source give for O=C(N/N=C/c1ccccn1)c1ccc(C(=O)NC23CC4CC(CC(C4)C2)C3)cc1 here?
Its IC50 is 42.4 µM.

With CCN(CC)Cc1ccc(/C=C/C(=O)c2ccc(OC)c(OC)c2)cc1O as the compound, how does the inhibition [27] read?
Its inhibition is 20.2%.

With COc1cc(-c2nc3ccccc3s2)ccc1OCC(=O)NCCCNc1c2c(nc3ccccc13)CCCC2 as the compound, how does the inhibition [28] read?
The inhibition was 33.7%.
